System: patients who have suffered from a myocardial infarction
Experiment: clinical trial of 3.5 years in infarcted patients on standard therapy, post-infarction mortality versus control group
Assay type: in vivo, human
Details: added to standard therapy
Source text: The efficacy of the treatment, according to the invention, is, for instance, proven by the fact that a surprising and highly significant reduction in post-infarction mortality was observed by such treatment in a clinical trial that lasted for 3.5 years, with protocols substantially designed as follows: • 1 a “control” group received the standard therapy which is usually given to infarcted patients; • 2 a “treatment” group, besides the therapy that was given to the “control” group, received 85% EPA+DHA (1 g daily); • 3 a “treatment” group, besides the therapy that was given to the “control” group received vitamin E; and • 4 a “treatment” group, besides the therapy that was given to the control group, received vitamin E and 85% EPA+DHA (1 g daily). […] From the above clinical results, the person skilled in the art will appreciate that, the use of a pharmaceutical composition in accordance to the present invention is certainly useful in human therapy in preventing mortality in patients who have suffered from a myocardial infarction.

vitamin E
result on mortality as compared to the control group (in words): no significant results

— patent US7462643B1, “Essential fatty acids in the prevention of cardiovascular events” (Pfizer Italia S.R.L., priority 1999, dated 2008)
